In BindingDB's records for patent US8633204 (Pfizer, 2014):

What follows are molecules tested against Phosphatidylinositol 4,5-bisphosphate 3-kinase catalytic subunit alpha isoform (Mus musculus, UniProt P42337) (assay: Biochemical Assay). Conditions: pH 7.4; 25 °C.
Chain of Phosphatidylinositol 4,5-bisphosphate 3-kinase catalytic subunit alpha isoform (P42337 whole entry, the tested form may be a part, canonical isoform): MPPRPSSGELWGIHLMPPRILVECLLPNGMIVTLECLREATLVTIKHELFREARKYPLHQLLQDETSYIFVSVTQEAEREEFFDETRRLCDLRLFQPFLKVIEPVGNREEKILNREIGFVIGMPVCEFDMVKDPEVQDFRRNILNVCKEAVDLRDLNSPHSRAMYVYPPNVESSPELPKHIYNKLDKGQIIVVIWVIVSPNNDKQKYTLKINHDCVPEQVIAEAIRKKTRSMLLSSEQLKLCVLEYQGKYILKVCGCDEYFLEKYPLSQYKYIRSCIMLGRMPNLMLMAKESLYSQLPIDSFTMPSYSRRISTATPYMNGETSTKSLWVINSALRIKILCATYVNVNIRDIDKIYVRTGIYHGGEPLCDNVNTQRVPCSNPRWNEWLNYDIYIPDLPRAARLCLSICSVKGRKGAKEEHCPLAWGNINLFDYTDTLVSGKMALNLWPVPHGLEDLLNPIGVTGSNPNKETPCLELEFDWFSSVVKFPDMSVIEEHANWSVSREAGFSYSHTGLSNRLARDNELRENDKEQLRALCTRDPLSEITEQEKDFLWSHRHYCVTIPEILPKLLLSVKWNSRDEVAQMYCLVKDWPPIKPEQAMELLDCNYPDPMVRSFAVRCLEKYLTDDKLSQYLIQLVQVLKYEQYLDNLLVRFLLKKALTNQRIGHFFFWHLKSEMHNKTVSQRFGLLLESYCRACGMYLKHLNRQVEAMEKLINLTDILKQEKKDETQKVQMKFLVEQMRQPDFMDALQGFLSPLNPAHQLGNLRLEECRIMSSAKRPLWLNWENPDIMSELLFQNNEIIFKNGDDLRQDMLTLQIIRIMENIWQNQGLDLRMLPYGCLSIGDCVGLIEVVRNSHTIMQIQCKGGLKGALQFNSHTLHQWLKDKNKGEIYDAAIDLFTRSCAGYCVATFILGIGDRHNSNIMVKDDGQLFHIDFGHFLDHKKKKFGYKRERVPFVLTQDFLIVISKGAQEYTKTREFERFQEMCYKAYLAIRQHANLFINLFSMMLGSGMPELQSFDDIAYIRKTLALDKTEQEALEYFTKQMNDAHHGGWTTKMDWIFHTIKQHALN
Procedure: Compounds of the present invention were evaluated for potency against PI3-Kα using an in vitro kinase assay. PI3-Kα activity is measured in vitro by determining the level of phosphorylation of the substrate PI(4,5)P2. The formation of product PI(3,4,5)P3 is monitored by binding to the Grip1 PH domain in a ligand displacement fluorescence polarization (FP) assay, in which the TAMRA-labeled PI(3,4,5)P3 complexed with Grip1 PH domain is displaced by PI(3,4,5)P3 formed in the PI3-Kα reaction resulting in a decrease in FP signal.
Work on `Cc1nc(N)nc2c1cc(-c1cccnc1N)c(=O)n2C1CCCC1` [US8633204, 125] yielded an IC50 of 1.43 µM. In the case of `CCNc1nc(C)c2cc(-c3ccc(O)c(OC)c3)c(=O)n(C3CCCC3)c2n1` [US8633204, 136], the IC50 is reported as 0.00308 µM. In the case of `CCNc1nc(C)c2cc(-c3cccc(O)c3)c(=O)n(C3CCCC3)c2n1` [US8633204, 144], the IC50 is reported as 0.00101 µM. `Cc1nc(N)nc2c1cc(Br)c(=O)n2[C@H]1CC[C@H](O)CC1` [US8633204, 157] was tested, and the IC50 was 0.044 µM. Work on `Cc1nc(N)nc2c1cc(Br)c(=O)n2CC(C)(C)O` [US8633204, 167] yielded an IC50 of 0.68 µM. In the case of `Cc1nc(N)nc2c1cc(-c1cn[nH]c1)c(=O)n2C1CCC(=O)CC1` [US8633204, 176], the IC50 is reported as 0.012 µM. With `Cc1nc(N)nc2c1cc(-c1cnn(C)c1)c(=O)n2C1CCCC1` [US8633204, 235] the IC50 was 0.032 µM.
